Experiment [1] deals with Echinochloa crus-galli var. oryzicola. The experiment is described as follows: Test Example 1: pot test on selectivity, inhibition of Echinochloa crus-galli var. oryzicola. Format: in vivo. As to conditions: dry weight 30 days after treatment; for inhibition at 750 g/ha / inhibition at 1500 g/ha / inhibition at 3000 g/ha / inhibition at 6000 g/ha / inhibition at 9000 g/ha: Echinochloa crus-galli, 720 h. On the procedure: (§1) In a Wagner pot of 1/500 are, paddy field soil (alluvial soil) was placed and 50 seeds of Echinochloa crus-galli var. oryzicola and 30 seeds of paddy rice were seeded in the surface layer of said soil and the submerging depth was kept at about 1 cm. When Echinochloa crus-galli var. oryzicola reached at the one leaf stage and 5-leaf stage, the emulsion of a predetermined concentration, prepared according to Example 4 was added dropwise. After 30 days from the treatment with the chemical, dry weights of Echinochloa crus-galli var. oryzicola and paddy rice were measured and the inhibition rate was calculated with reference to untreated area. [formula]
(§2) The comparative chemicals used, i.e. DCMU and Linuron, were those commercially available, and the comparative chemicals A and B used were prepared according to the process for formulating the compound of this invention.

Experiment [2] relates to paddy rice. Kind of experiment: Test Example 1: pot test on selectivity, inhibition of paddy rice. As to conditions: dry weight 30 days after treatment. The format is in vivo. On the procedure: In a Wagner pot of 1/500 are, paddy field soil (alluvial soil) was placed and 50 seeds of Echinochloa crus-galli var. oryzicola and 30 seeds of paddy rice were seeded in the surface layer of said soil and the submerging depth was kept at about 1 cm. […] After 30 days from the treatment with the chemical, dry weights of Echinochloa crus-galli var. oryzicola and paddy rice were measured and the inhibition rate was calculated with reference to untreated area. [formula]
as §2

In experiment [3] the test system is Echinochloa crus-galli var. oryzicola. The experiment is described as follows: Test Example 2: concrete pot test on killing effect, Echinochloa crus-galli var. oryzicola. As to conditions: Echinochloa crus-galli, 720 h; for inhibition at 9000 g/ha: 900 g/10 are. Format: in vivo. As for the experimental part:
as §1
(§3) In a concrete pot of 1/400 are (50 cm×50 cm), paddy field soil (alluvial soil) was placed and 200 seeds of Echinochloa crus-galli var. oryzicola were seeded in 10 surface layer of said soil and the soil was submerged at about 3 cm depth. Before emergence of Echinochloa crus-galli var. oryzicola, paddy rice at 2.5-leaf stage (Asahi species) was transplanted at the rate of 8 stubs per pot, planting 3 seedlings per stub. At the one-leaf stage (3.5 leaves stage of paddy rice) and 5 leaves stage (7 leaves stage of paddy rice) of Echinochloa crus-galli var. oryzicola, the granule prepared according to Example 1 was applied. […] 30 Days after the treatment with the chemical, examination was made in the similar manner as Test Example 1 to obtain results as shown in Table 2.
(§4) In the table, as the comparative chemicals CPN, Benthiocarb, Molinate and Simetryne, those commercially available were used and the comparative chemicals A and B (as mentioned before) used were prepared according to the process for preparing the compound of this invention.

Experiment [4] concerns paddy rice. The experiment is described as follows: whole plant or invertebrate. As to conditions: Oryza sativa, 720 h; for inhibition at 9000 g/ha: 900 g/10 are. Format: in vivo, paddy rice (Asahi species). As for the experimental part:
as §1, §3, §4

Where [5] appears, read: read-out: Inhibition (%) by treatment at 1-leaf stage of E. crus-galli var. oryzicola, E. crus-galli var. oryzicola.
[6] abbreviates: read-out: Inhibition (%) by treatment at 5-leaf stage of E. crus-galli var. oryzicola, E. crus-galli var. oryzicola.
[7] abbreviates: read-out: Inhibition (%) by treatment at 1-leaf stage of E. crus-galli var. oryzicola, paddy rice.
Where [8] appears, read: read-out: Inhibition (%) by treatment at 5-leaf stage of E. crus-galli var. oryzicola, paddy rice.

Each structure is given as a SMILES string. Where two headings read alike, the source gives them in different places.

In the case of `CC=CCOc1ccc(NC(=O)N(C)C)cc1` [Mixture of trans- and cis-forms 1:4], the “Inhibition (%) by treatment at 1-leaf stage, E. crus-galli var. oryzicola” value was found to be 93% in experiment [1] (75 g/10 are, 1-leaf stage); 100% in experiment [1] (150 g/10 are, 1-leaf stage); 100% in experiment [1] (300 g/10 are, 1-leaf stage); 100% in experiment [1] (600 g/10 are, 1-leaf stage); 100% in experiment [1] (900 g/10 are, 1-leaf stage). The “Inhibition (%) by treatment at 5-leaf stage, E. crus-galli var. oryzicola” value in experiment [1] (75 g/10 are, 5-leaf stage) is given as 84%; in experiment [1] (150 g/10 are, 5-leaf stage), 100%; in experiment [1] (300 g/10 are, 5-leaf stage), 100%; in experiment [1] (600 g/10 are, 5-leaf stage) it was 100%; in experiment [1] (900 g/10 are, 5-leaf stage), 100%. The “Inhibition (%) by treatment at 1-leaf stage, paddy rice” value in the experiment on paddy rice [2] (75 g/10 are, 1-leaf stage) turned out to be 0%; in the experiment with paddy rice [2] (150 g/10 are, 1-leaf stage), 0%; in the experiment with paddy rice [2] (300 g/10 are, 1-leaf stage) it was 0%; in the experiment with paddy rice [2] (600 g/10 are, 1-leaf stage), 0%; in the experiment on paddy rice [2] (900 g/10 are, 1-leaf stage) it was 4%. For the same compound, the “Inhibition (%) by treatment at 5-leaf stage, paddy rice” value in the experiment with paddy rice [2] (75 g/10 are, 5-leaf stage) is recorded as 0%; in the experiment with paddy rice [2] (150 g/10 are, 5-leaf stage), 0%; with paddy rice [2] (300 g/10 are, 5-leaf stage), 0%; in the experiment on paddy rice [2] (600 g/10 are, 5-leaf stage), 0%; in the experiment on paddy rice [2] (900 g/10 are, 5-leaf stage), 0%.
With `O=[N+]([O-])c1ccc(Oc2c(Cl)cc(Cl)cc2Cl)cc1` [CNP, 2,4,6-trichlorophenyl-4'-nitrophenylether], the inhibition at 1000 g/ha amounted to 65% in experiment [3] (100 g/10 are, granule, 30 days after treatment, read-out: Inhibition (%) by treatment at 1-leaf stage of E. crus-galli var. oryzicola, E. crus-galli var. oryzicola); 0% in experiment [3] (100 g/10 are, granule, 30 days after treatment, read-out: Inhibition (%) by treatment at 5-leaf stage of E. crus-galli var. oryzicola, E. crus-galli var. oryzicola); 0% in the experiment with paddy rice [4] (100 g/10 are, granule, rice at 3.5 leaves stage, 30 days, read-out: Inhibition (%) by treatment at 1-leaf stage of E. crus-galli var. oryzicola, paddy rice); 0% in the experiment on paddy rice [4] (100 g/10 are, granule, rice at 7 leaves stage, 30 days, read-out: Inhibition (%) by treatment at 5-leaf stage of E. crus-galli var. oryzicola, paddy rice). Besides, the inhibition at 3000 g/ha came to 100% in experiment [3] (300 g/10 are, granule, 30 days after treatment, read-out: Inhibition (%) by treatment at 1-leaf stage of E. crus-galli var. oryzicola, E. crus-galli var. oryzicola); 0% in experiment [3] (300 g/10 are, granule, 30 days after treatment, read-out: Inhibition (%) by treatment at 5-leaf stage of E. crus-galli var. oryzicola, E. crus-galli var. oryzicola); 8% in the experiment on paddy rice [4] (300 g/10 are, granule, rice at 3.5 leaves stage, 30 days, read-out: Inhibition (%) by treatment at 1-leaf stage of E. crus-galli var. oryzicola, paddy rice); 0% in the experiment with paddy rice [4] (300 g/10 are, granule, rice at 7 leaves stage, 30 days, read-out: Inhibition (%) by treatment at 5-leaf stage of E. crus-galli var. oryzicola, paddy rice). For the same compound, the inhibition at 9000 g/ha was found to be 100% in experiment [3] (granule, 30 days after treatment, read-out: Inhibition (%) by treatment at 1-leaf stage of E. crus-galli var. oryzicola, E. crus-galli var. oryzicola); 0% in experiment [3] (granule, 30 days after treatment, read-out: Inhibition (%) by treatment at 5-leaf stage of E. crus-galli var. oryzicola, E. crus-galli var. oryzicola); 52% with paddy rice [4] (granule, rice at 3.5 leaves stage, 30 days, read-out: Inhibition (%) by treatment at 1-leaf stage of E. crus-galli var. oryzicola, paddy rice); 0% in the experiment with paddy rice [4] (granule, rice at 7 leaves stage, 30 days, read-out: Inhibition (%) by treatment at 5-leaf stage of E. crus-galli var. oryzicola, paddy rice).
Regarding `CCNc1nc(NCC)nc(SC)n1` [Simetryne, 2,4-bis(ethylamino)-6-methylthio-1,3,5-triazine], the inhibition at 300 g/ha is 20% in experiment [3] (setting [5]), 0% in experiment [3] (setting [6]), 0% with paddy rice [4] (setting [7]) and 0% with paddy rice [4] (setting [8]). Besides, the inhibition at 1000 g/ha in experiment [3] (setting [5]) is 100%; in experiment [3] (setting [6]) it was 7%; with paddy rice [4] (setting [7]) it was 74%; in the experiment on paddy rice [4] (setting [8]) it was 17%. In addition, the inhibition at 3000 g/ha in experiment [3] (setting [5]) was 100%; in experiment [3] (setting [6]), 36%; in the experiment with paddy rice [4] (setting [7]), 100%; in the experiment with paddy rice [4] (setting [8]) it was 46%.
Take `CC=CCOc1ccc(NC(=O)N(C)C)cc1` [Mixture of trans- and cis-forms 4:1]: the inhibition at 750 g/ha in experiment [1] (75 g/10 are, 1-leaf stage, read-out: Inhibition (%) by treatment at 1-leaf stage, E. crus-galli var. oryzicola) turned out to be 94%; in experiment [1] (75 g/10 are, 5-leaf stage, read-out: Inhibition (%) by treatment at 5-leaf stage, E. crus-galli var. oryzicola), 80%; in the experiment on paddy rice [2] (Oryza sativa, 720 h, 75 g/10 are, 1-leaf stage, read-out: Inhibition (%) by treatment at 1-leaf stage, paddy rice), 0%; with paddy rice [2] (Oryza sativa, 720 h, 75 g/10 are, 5-leaf stage, read-out: Inhibition (%) by treatment at 5-leaf stage, paddy rice) it was 0%. Moreover, the inhibition at 1500 g/ha turned out to be 100% in experiment [1] (150 g/10 are, 1-leaf stage, read-out: Inhibition (%) by treatment at 1-leaf stage, E. crus-galli var. oryzicola); 100% in experiment [1] (150 g/10 are, 5-leaf stage, read-out: Inhibition (%) by treatment at 5-leaf stage, E. crus-galli var. oryzicola); 0% in the experiment with paddy rice [2] (Oryza sativa, 720 h, 150 g/10 are, 1-leaf stage, read-out: Inhibition (%) by treatment at 1-leaf stage, paddy rice); 0% with paddy rice [2] (Oryza sativa, 720 h, 150 g/10 are, 5-leaf stage, read-out: Inhibition (%) by treatment at 5-leaf stage, paddy rice). Further, the inhibition at 3000 g/ha in experiment [1] (300 g/10 are, 1-leaf stage, read-out: Inhibition (%) by treatment at 1-leaf stage, E. crus-galli var. oryzicola) was determined as 100%; in experiment [1] (300 g/10 are, 5-leaf stage, read-out: Inhibition (%) by treatment at 5-leaf stage, E. crus-galli var. oryzicola), 100%; in the experiment with paddy rice [2] (Oryza sativa, 720 h, 300 g/10 are, 1-leaf stage, read-out: Inhibition (%) by treatment at 1-leaf stage, paddy rice), 0%; in the experiment on paddy rice [2] (Oryza sativa, 720 h, 300 g/10 are, 5-leaf stage, read-out: Inhibition (%) by treatment at 5-leaf stage, paddy rice) it was 0%. Also, the inhibition at 6000 g/ha in experiment [1] (600 g/10 are, 1-leaf stage, read-out: Inhibition (%) by treatment at 1-leaf stage, E. crus-galli var. oryzicola) was 100%; in experiment [1] (600 g/10 are, 5-leaf stage, read-out: Inhibition (%) by treatment at 5-leaf stage, E. crus-galli var. oryzicola), 100%; in the experiment on paddy rice [2] (Oryza sativa, 720 h, 600 g/10 are, 1-leaf stage, read-out: Inhibition (%) by treatment at 1-leaf stage, paddy rice) it was 0%; in the experiment on paddy rice [2] (Oryza sativa, 720 h, 600 g/10 are, 5-leaf stage, read-out: Inhibition (%) by treatment at 5-leaf stage, paddy rice), 0%. In addition, the inhibition at 9000 g/ha in experiment [1] (900 g/10 are, 1-leaf stage, read-out: Inhibition (%) by treatment at 1-leaf stage, E. crus-galli var. oryzicola) was 100%; in experiment [1] (900 g/10 are, 5-leaf stage, read-out: Inhibition (%) by treatment at 5-leaf stage, E. crus-galli var. oryzicola) it was 100%; with paddy rice [2] (Oryza sativa, 720 h, 900 g/10 are, 5-leaf stage, read-out: Inhibition (%) by treatment at 5-leaf stage, paddy rice), 0%. The “Inhibition (%) by treatment at 1-leaf stage, paddy rice” value with paddy rice [2] (900 g/10 are, 1-leaf stage) is 1%.

Usually inhibition stands for the share of the control response that was lost under treatment.

Values taken from US4255183A, “Substituted phenyl urea and herbicides for use in paddy field” (Hokko Chemical Industry Co., Ltd., priority 1977, dated 1981).
